Experimental data as given in patent US20040097594A1 (priority 1998, published 2004).
Like-named read-outs stand apart in the source and are kept apart here.

Key:
HIV-1 protease = HIV-1 protease (Human immunodeficiency virus type 1 group M subtype B, UniProt P04585); assay: biochemical
HIV-1 (strain IIIB) = assay: microbe, parasite or virus in culture; type: cell-based; details: Human immunodeficiency virus 1, 120 h; MT4 cells infected with HIV-1 strain IIIB, 5 days; lower line of each compound's entry; read-out: IC50 (MT-4 cells)
[1] = HIV-1 protease, upper line of each compound's entry, read-out: Ki (enzyme)

Row | Compound | Ki (HIV-1 protease; [1]) [nM] | IC50 (HIV-1 (strain IIIB)) [nM] | Ki (HIV-1 protease) [nM]
1 | COC(=O)Nc1nc2cc(S(=O)(=O)N(C[C@@H](O)[C@H](Cc3ccccc3)NC(=O)OC3CO[C@H]4OCC[C@@H]34)OC3CCCC3)ccc2[nH]1 (mixture of isomers) [Compound 54, (3aS,6aR)Hexahydrofuro[2,3-b]furan-3-yl N-(1S,2R)-1-benzyl-3-[(cyclopentyloxy)(2-[(methoxycarbonyl)amino]-1H benzimidazol-5-ylsulfonyl)amino]-2-hydroxypropylcarbamate] | < 1 | ≤ 100 | 
2 | CON(C)C(=O)CNc1cccc(S(=O)(=O)N(CC(O)C(Cc2ccccc2)NC(=O)OC2COC3OCCC23)OC2CCCC2)c1 (mixture of isomers) [Compound 88, (3R,3aS,6aR)hexahydrofuro[2,3-b]furan-3-yl N-[(1S,2R)-1-benzyl-3-((cyclopentyloxy)[3-(2-[methoxy(methyl)amino]-2-oxoethylamino)phenyl]sulfonylamino)-2-hydroxypropyl]carbamate and (3S,3aR,6aS)hexahydrofuro[2,3-b]furan-3-yl N-[(1S,2R)-1-benzyl-3-((cyclopentyloxy)[3-(2[methoxy(methyl)amino]-2-oxoethylamino)phenyl]sulfonylamino)-2-hydroxypropyl]carbamate] | < 1 | ≤ 100 | 
3 | CCOC(=O)CNC(=O)NCCNc1cccc(S(=O)(=O)N(CC(O)C(Cc2ccccc2)NC(=O)OC2COC3OCCC23)OC2CCCC2)c1 (mixture of isomers) [Compound 113, Ethyl 2-[([2-(3-[[(2R,3S)-3-([(3R,3aS,6aR)hexahydrofuro[2,3-b]furan-3-yloxy]carbonylamino)-2-hydroxy-4-phenylbutyl](cyclopentyloxy)amino]sulfonylanilino)ethyl]aminocarbonyl)amino]acetate and ethyl 2-[([2-(3-[[(2R,3S)-3-([(3S,3aR,6aS)hexahydrofuro[2,3-b]furan-3-yloxy]carbonylamino)-2-hydroxy-4 phenylbutyl](cyclopentyloxy)amino]sulfonylanilino)ethyl]aminocarbonyl)amino]acetate] | < 1 | ≤ 100 | 
4 | COC(=O)NCCNc1cccc(S(=O)(=O)N(CC(O)C(Cc2ccccc2)NC(=O)OC2COC3OCCC23)OC2CCCC2)c1 (mixture of isomers) [Compound 124, (3R,3aS,6aR)hexahydrofuro[2,3-b]furan-3-yl N-[(1S,2R)-1-benzyl-3-((cyclopentyloxy)[3-(2-[(methoxycarbonyl)amino]ethylamino)phenyl]sulfonylamino)-2-hydroxypropyl]carbamate and (3S,3aR,6aS)hexahydrofuro[2,3-b]furan-3-yl N-[(1S,2R)-1-benzyl-3-((cyclopentyloxy)[3-(2-[(methoxycarbonyl)amino]ethylamino)phenyl]sulfonylamino)-2-hydroxypropyl)carbamate] | < 1 | ≤ 100 | 
5 | CONC(=O)CNc1cccc(S(=O)(=O)N(CC(O)C(Cc2ccccc2)NC(=O)OC2COC3OCCC23)OC2CCCC2)c1 (mixture of isomers) [Example 168, (3R,3aS,6aR)hexahydrofuro[2,3-b]furan-3-yl N-[(1S,2R)-1-benzyl-3-((cyclopentyloxy)[3-(2-[methoxyamino]-2-oxoethylamino)phenyl]sulfonylamino)-2-hydroxypropyl]carbamate and (3S,3aR,6aS)hexahydrofuro[2,3-b]furan-3-yl N-[(1S,2R)-1-benzyl-3-((cyclopentyloxy)[3-(2-[methoxyamino]-2-oxoethylamino)phenyl]sulfonylamino)-2-hydroxypropyl]carbamate] | < 1 | ≤ 100 | 
6 | CCN(C)C(=O)CNc1cccc(S(=O)(=O)N(CC(O)C(Cc2ccccc2)NC(=O)OC2COC3OCCC23)OC2CCCC2)c1 (mixture of isomers) [Example 170, (3R,3aS,6aR)hexahydrofuro[2,3-b]furan-3-yl N-[(1S,2R)-1-benzyl-3-((cyclopentyloxy)[3-(2-[ethyl(methyl)amino]-2-oxoethylamino)phenyl]sulfonylamino)-2-hydroxypropyl)carbamate and (3S,3aR,6aS)hexahydrofuro[2,3-b]furan-3-yl N-[(1S,2R)-1-benzyl-3-((cyclopentyloxy)[3-(2-[ethyl(methyl)amino]-2-oxoethylamino)phenyl]sulfonylamino)-2-hydroxypropyl]carbamate] | < 1 | ≤ 100 | 
7 | Nc1cccc(S(=O)(=O)N(C[C@@H](O)[C@H](Cc2ccccc2)NC(=O)O[C@H]2CO[C@H]3OCC[C@H]32)OC2CCCC2)c1 (single isomer, unassigned) [Compound 77] | < 1 | ≤ 100 | 
8 | O=C(N[C@@H](Cc1ccccc1)[C@H](O)CC(OC1CCCC1)S(=O)(=O)c1ccc2nccnc2c1)OC1CCOC1 (stereo in doubt) [Compound 110, (3S)tetrahydro-3-furanyl N-[(1S,2R)-1-benzyl-4-(cyclopentyloxy)-2-hydroxy-4-(6-quinoxalinylsulfonyl)butyl]carbamate] | < 1 | 100 to 500 | 
9 | CC(C)ON(C[C@@H](O)[C@H](Cc1ccccc1)NC(=O)OC(C)(C)C)S(=O)(=O)c1cccc(N)c1 [Compound 1] | 10 to 100 | > 1000 | 
10 | CC(C)ON(C[C@@H](O)[C@H](Cc1ccccc1)NC(=O)OC(C)(C)C)S(=O)(=O)c1ccc(N)c(N)c1 [Compound 2] | 10 to 100 | > 1000 | 
11 | CC(C)ON(C[C@@H](O)[C@H](Cc1ccccc1)NC(=O)OC(C)(C)C)S(=O)(=O)c1ccc2[nH]cnc2c1 [Compound 3] | 10 to 100 | > 1000 | 
12 | CC(C)ON(C[C@@H](O)[C@H](Cc1ccccc1)NC(=O)OC(C)(C)C)S(=O)(=O)c1ccc2[nH]c(=O)[nH]c2c1 [Compound 4] | 10 to 100 | > 1000 | 
13 | CC(C)ON(C[C@@H](O)[C@H](Cc1ccccc1)NC(=O)OC(C)(C)C)S(=O)(=O)c1ccc2[nH]c(NS(C)(=O)=O)nc2c1 [Compound 5] | 1 to 10 | 500 to 1000 | 
14 | COc1ccc(S(=O)(=O)N(C[C@@H](O)[C@H](Cc2ccccc2)NC(=O)OC(C)(C)C)OC(C)C)cc1 [Compound 6] |  | > 1000 | 10 to 100
15 | COc1ccc(S(=O)(=O)N(C[C@@H](O)[C@H](Cc2ccccc2)NC(=O)OC(C)(C)C)OC2CCCC2)cc1 [Compound 7] |  | > 1000 | 1 to 10
16 | CC(C)(C)OC(=O)N[C@@H](Cc1ccccc1)[C@H](O)CN(OC1CCCC1)S(=O)(=O)c1ccc2[nH]c(NC(=O)N3CCOCC3)nc2c1 [Compound 8] | < 1 | 500 to 1000 | 
17 | CC(C)(C)OC(=O)N[C@@H](Cc1ccccc1)[C@H](O)CN(OC1CCCC1)S(=O)(=O)c1cccc(N)c1 [Compound 11, tert-butyl N-(1S,2R)-3-[[(3-aminophenyl)sulfonyl](cyclopentyloxy)amino]-1-benzyl-2-hydroxypropylcarbamate] | 1 to 10 | > 1000 | 
18 | CN(C)C(=O)Nc1nc2cc(S(=O)(=O)N(C[C@@H](O)[C@H](Cc3ccccc3)NC(=O)OC(C)(C)C)OC3CCCC3)ccc2[nH]1 [Compound 14, Tert-butyl N-(1S,2R)-1-benzyl-3-[(cyclopentyloxy)(2-[(dimethylamino-carbonyl)amino]-1H-benzimidazol-5-ylsulfonyl)amino]-2-hydroxypropylcarbamate] | < 1 | 100 to 500 | 
19 | CCC(C)ON(C[C@@H](O)[C@H](Cc1ccccc1)NC(=O)OC(C)(C)C)S(=O)(=O)c1ccc(OC)cc1 (stereo partly drawn) [Compound 15, tert-butyl N-((1S,2R)-1-benzyl-3-sec-butoxy[(4-methoxyphenyl)sulfonyl]amino-2-hydroxypropyl)carbamate] | 1 to 10 | > 1000 | 
20 | COc1ccc(S(=O)(=O)N(C[C@@H](O)[C@H](Cc2ccccc2)NC(=O)OC(C)(C)C)OCC2CCCCC2)cc1 [Compound 16, tert-butyl N-((1S,2R)-1-benzyl-3-(cyclohexylmethoxy)[(4-methoxyphenyl)sulfonyl]amino-2-hydroxypropyl)carbamate] | 10 to 100 | > 1000 | 
21 | COc1ccc(S(=O)(=O)N(C[C@@H](O)[C@H](Cc2ccccc2)NC(=O)OC(C)(C)C)Oc2ccccc2)cc1 [Compound 17, tert-butyl N-(1S,2R)-1-benzyl-2-hydroxy-3-[[(4-methoxyphenyl)sulfonyl](phenoxy)amino]propylcarbamate] | 10 to 100 | > 1000 | 
22 | COc1ccc(S(=O)(=O)N(C[C@@H](O)[C@H](Cc2ccccc2)NC(=O)OC(C)(C)C)OC2CCOCC2)cc1 [Compound 18, tert-butyl N-(1S,2R)-1-benzyl-2-hydroxy-3-[[(4-methoxyphenyl)sulfonyl](tetrahydro-2H-pyran-4-yloxy)amino]propylcarbamate] | 1 to 10 | > 1000 | 
23 | COc1ccc(S(=O)(=O)N(C[C@@H](O)[C@H](Cc2ccccc2)NC(=O)OC(C)(C)C)OCC2CCCCO2)cc1 (stereo partly drawn) [Compound 19, tert-butyl N-(1S,2R)-1-benzyl-2-hydroxy-3-[[(4-methoxyphenyl)sulfonyl](tetrahydro-2H-pyran-2-ylmethoxy)amino]propylcarbamate] | 10 to 100 | > 1000 | 
24 | COc1ccc(S(=O)(=O)N(C[C@@H](O)[C@H](Cc2ccccc2)NC(=O)OC(C)(C)C)OC2CCOC2)cc1 (stereo partly drawn) [Compound 20, tert-butyl N-(1S,2R)-1-benzyl-2-hydroxy-3-[[(4-methoxyphenyl)sulfonyl](tetrahydro-3-furanyloxy)amino]propylcarbamate] | 1 to 10 | > 1000 | 
25 | COc1ccc(S(=O)(=O)N(C[C@@H](O)[C@H](Cc2ccccc2)NC(=O)OC(C)(C)C)OCc2ccccc2)cc1 [Compound 21, tert-butyl N-((1S,2R)-1-benzyl-3-(benzyloxy)[(4-methoxyphenyl)sulfonyl]amino-2-hydroxypropyl)carbamate] | 10 to 100 | > 1000 | 
26 | COc1ccc(S(=O)(=O)N(C[C@@H](O)[C@H](Cc2ccccc2)NC(=O)OC(C)(C)C)OCC(C)C)cc1 [Compound 22, tert-butyl N-((1S,2R)-1-benzyl-2-hydroxy-3-isobutoxy[(4-methoxyphenyl)sulfonyl]aminopropyl)carbamate] |  | > 1000 | 1 to 10
